Data from ChEMBL document CHEMBL1201862, “PubChem BioAssay data set” (2004).
Activity calls are given as the source filed them.

How the values were obtained:
[1] = HEK293 cell cytotoxicity, dose response, cytotoxicity control, plate reader, cherry-picked samples (AID 743446); format: functional, cell-based
[2] = target: T1, Replicative DNA helicase DnaB (Mycobacterium tuberculosis, UniProt P9WMR3); assay: DnaB intein splicing inhibitors, dose response, biochemical, cell-free fluorescence (AID 449749); format: functional
T1 sequence (P9WMR3 whole entry): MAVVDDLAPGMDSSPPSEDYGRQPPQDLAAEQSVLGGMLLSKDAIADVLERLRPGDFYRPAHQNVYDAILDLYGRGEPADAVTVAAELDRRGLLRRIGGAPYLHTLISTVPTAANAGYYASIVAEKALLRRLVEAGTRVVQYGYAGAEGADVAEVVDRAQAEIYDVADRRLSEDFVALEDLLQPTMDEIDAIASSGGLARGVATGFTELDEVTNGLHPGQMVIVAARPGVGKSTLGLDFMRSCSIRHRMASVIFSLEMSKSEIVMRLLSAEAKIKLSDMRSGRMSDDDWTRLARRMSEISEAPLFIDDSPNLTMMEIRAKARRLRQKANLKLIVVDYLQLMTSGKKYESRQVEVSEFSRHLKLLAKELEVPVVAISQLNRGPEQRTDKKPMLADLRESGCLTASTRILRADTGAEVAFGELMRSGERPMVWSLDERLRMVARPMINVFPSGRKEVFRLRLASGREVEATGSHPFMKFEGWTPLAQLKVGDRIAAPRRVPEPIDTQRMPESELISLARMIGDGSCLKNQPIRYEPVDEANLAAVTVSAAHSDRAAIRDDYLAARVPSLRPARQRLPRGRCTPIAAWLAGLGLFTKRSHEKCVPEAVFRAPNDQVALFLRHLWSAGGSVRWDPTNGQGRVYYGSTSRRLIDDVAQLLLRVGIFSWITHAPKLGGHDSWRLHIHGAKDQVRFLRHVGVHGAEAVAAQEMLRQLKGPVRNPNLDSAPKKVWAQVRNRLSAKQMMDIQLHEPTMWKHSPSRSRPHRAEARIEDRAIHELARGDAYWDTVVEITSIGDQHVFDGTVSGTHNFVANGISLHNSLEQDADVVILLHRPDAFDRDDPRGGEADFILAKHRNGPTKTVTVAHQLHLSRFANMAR

[3] = LGR2 antagonists, dose response, cell-based, HEK293, CRE-luciferase reporter, cherry pick, set 2 (AID 743343); format: functional;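 note: transfected cells were stimulated with diluted bursicon conditioned medium after compound addition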
Beta-galactosidase = Beta-galactosidase (Escherichia coli, UniProt Q8VNN2); assay: PubChem AID 485352; format: functional
[4] = HepG2 cell cytotoxicity, dose response, cytotoxicity control, plate reader, cherry-pick, antagonist series (AID 743416); format: functional, cell-based
[5] = Fluorescence-based cell-based high throughput dose response assay for inhibitors of the interaction of nucleotide-binding oligomerization domain containing 2 (NOD2) and the receptor-interacting serine-threonine kinase 2 (RIPK2).; format: functional; details: Homo sapiens
[6] = A549 cell cytotoxicity, dose response, cytotoxicity control, plate reader, cherry-pick, antagonist series (AID 743412); format: functional, cell-based
Protein RecA = target: T2, Protein RecA (Mycobacterium tuberculosis, UniProt P9WHJ3); assay: Fluorescence Cell-Free Homogeneous Dose Retest to Identify Inhibitors of RecA-Intein Splicing Activity. [Related pubchem assays (depositor defined):AID2097, AID2223, AID489010, AID492950]; format: functional
T2 sequence (P9WHJ3 whole entry): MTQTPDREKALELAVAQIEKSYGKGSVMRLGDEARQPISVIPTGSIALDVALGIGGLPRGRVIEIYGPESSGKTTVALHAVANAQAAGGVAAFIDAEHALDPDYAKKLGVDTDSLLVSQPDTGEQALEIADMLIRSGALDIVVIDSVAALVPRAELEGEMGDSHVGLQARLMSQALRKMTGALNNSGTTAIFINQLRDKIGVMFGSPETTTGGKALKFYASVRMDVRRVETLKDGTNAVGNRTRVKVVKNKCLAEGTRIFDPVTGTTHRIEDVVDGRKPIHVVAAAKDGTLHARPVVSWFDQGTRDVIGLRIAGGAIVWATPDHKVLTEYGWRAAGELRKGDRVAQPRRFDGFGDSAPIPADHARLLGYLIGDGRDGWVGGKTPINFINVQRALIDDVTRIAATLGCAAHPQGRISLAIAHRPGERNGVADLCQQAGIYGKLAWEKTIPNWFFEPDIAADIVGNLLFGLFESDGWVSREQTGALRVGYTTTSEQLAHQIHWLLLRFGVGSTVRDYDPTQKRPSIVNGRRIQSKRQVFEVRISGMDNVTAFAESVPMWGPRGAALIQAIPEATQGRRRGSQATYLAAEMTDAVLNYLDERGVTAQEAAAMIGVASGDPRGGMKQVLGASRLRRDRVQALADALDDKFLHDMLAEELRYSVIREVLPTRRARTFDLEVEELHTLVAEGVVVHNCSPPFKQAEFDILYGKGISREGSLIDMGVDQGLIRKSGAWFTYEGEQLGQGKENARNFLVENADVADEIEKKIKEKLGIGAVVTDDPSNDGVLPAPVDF

Beta Lactamase = Beta Lactamase (Pseudomonas aeruginosa, UniProt Q932Y6); assay: beta-lactamase reporter inhibitor potency, dose response, artefact control for NOD2-RIPK2 interaction inhibitor project, BLA reporter cells, FRET fluorescence (AID 651552); format: functional, cell-based
[7] = cytotoxicity toward NIH3T3 fibroblasts, dose response, counter-screen, cell-based, ATP luminescence, mouse fibroblasts (AID 2010); format: functional;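 note: cells exposed to compound for about 90 hours before reading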
[8] = target: G-protein coupled receptor 55 (Homo sapiens, UniProt Q9Y2T6); assay: GPR55 antagonists blocking LPI-driven arrestin recruitment, primary screen, imaging, U2OS, beta-arrestin-GFP, LPI agonist (AID 2013); format: functional;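 note: antagonist potency measured as reduced agonist-driven arrestin aggregation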
[9] = target: T3, Type-1 angiotensin II receptor (Homo sapiens, UniProt P30556); assay: AT1 receptor antagonists, dose response, selectivity assay for APJ receptor antagonist project, cell-based, uHTS hits (AID 463214); format: functional;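 note: antagonist potency against angiotensin II stimulated AT1 response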
T3 sequence (P30556 whole entry): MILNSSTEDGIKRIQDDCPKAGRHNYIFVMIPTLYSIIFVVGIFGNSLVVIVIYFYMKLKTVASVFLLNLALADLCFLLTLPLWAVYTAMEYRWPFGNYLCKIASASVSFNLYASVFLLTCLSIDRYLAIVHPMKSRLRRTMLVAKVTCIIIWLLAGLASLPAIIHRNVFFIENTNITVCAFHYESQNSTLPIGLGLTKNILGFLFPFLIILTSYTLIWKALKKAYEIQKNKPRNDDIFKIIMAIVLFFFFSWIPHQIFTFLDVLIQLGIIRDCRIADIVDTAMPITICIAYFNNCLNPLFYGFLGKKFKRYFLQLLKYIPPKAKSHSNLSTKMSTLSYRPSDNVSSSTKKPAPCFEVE

[10] = inhibitors of intracellular T. cruzi replication, confirmation, NIH3T3 host cells, beta-gal luminescence (AID 2044); format: functional, cell-based;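 note: intracellular parasites grown in NIH/3T3 mouse fibroblasts as host cells; luminescent beta-galactosidase reporter signal from transgenic T. cruzi replicating inside host cells; inhibitors lower the luminescence signal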
[11] = miR-122 activators in hepatoma reporter cells, dose response, cell-based, Huh7 psiCHECK-miR122, Renilla luciferase, cherry-picked (AID 651956); format: functional;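 note: huh7 hepatoma cells stably carrying a psiCHECK-2 miR-122 sensor plasmid; renilla luciferase signal reporting endogenous miR-122 activity after 48 h compound exposure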
[12] = HEK293T cytotoxicity, dose response, cytotoxicity control for miR-122 modulator project, cell-based, activator set, cherry-pick (AID 720690); format: functional;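 note: HEK293T human cells scored for general mammalian cytotoxicity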
[13] = MC4R antagonists, dose response, counter-screen for LGR2 antagonist project, cell-based, plate reader, cherry pick (AID 743444); format: functional;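 note: transfected HEK 293 cells stimulated with alpha-MSH peptide; potency of inhibitors of the alpha-MSH evoked signal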
[14] = HEK293T cytotoxicity, dose response, cytotoxicity control for miR-122 modulator project, cell-based, inhibitor set, cherry-pick, set 2 (AID 720697); format: functional
[15] = target: T4, Sentrin-specific protease 8 (Homo sapiens, UniProt Q96LD8); format: functional
T4 sequence (Q96LD8 whole entry): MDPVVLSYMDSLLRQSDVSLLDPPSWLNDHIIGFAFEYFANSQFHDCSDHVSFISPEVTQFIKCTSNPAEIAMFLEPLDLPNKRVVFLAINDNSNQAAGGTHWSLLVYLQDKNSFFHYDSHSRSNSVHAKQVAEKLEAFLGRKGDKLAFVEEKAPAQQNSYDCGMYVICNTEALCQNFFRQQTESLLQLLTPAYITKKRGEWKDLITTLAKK

[16] = target: T4, Sentrin-specific protease 8; format: functional; remark: listed apart in the source
[17] = MDA-MB-231 cell growth inhibition, dose response, cytotoxicity control for RAD54 inhibitor project, CellTiter-Glo luminescence, cherry-pick (AID 651692); format: functional, cell-based
[18] = target: T5, DNA repair protein RAD52 homolog (Homo sapiens, UniProt P43351); format: functional, biochemical
T5 sequence (P43351 whole entry): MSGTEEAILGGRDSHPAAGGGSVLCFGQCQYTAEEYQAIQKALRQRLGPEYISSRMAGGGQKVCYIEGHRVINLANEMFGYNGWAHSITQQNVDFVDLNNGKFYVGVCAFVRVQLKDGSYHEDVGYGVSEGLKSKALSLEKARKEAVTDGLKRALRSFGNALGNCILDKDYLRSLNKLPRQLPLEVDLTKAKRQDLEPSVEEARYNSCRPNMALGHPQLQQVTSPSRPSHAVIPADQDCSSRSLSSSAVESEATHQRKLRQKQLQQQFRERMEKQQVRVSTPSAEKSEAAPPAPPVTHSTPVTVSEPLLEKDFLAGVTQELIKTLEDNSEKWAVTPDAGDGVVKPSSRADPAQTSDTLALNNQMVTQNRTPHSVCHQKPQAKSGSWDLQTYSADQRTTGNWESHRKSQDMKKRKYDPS

[19] = target: T6, DNA repair and recombination protein RAD54-like (Homo sapiens, UniProt Q92698); assay: inhibitors of human RAD54 branch migration, confirmation, biochemical, fluorescence, cherry-picked samples, dose series (AID 651657); format: functional
T6 sequence (Q92698 whole entry): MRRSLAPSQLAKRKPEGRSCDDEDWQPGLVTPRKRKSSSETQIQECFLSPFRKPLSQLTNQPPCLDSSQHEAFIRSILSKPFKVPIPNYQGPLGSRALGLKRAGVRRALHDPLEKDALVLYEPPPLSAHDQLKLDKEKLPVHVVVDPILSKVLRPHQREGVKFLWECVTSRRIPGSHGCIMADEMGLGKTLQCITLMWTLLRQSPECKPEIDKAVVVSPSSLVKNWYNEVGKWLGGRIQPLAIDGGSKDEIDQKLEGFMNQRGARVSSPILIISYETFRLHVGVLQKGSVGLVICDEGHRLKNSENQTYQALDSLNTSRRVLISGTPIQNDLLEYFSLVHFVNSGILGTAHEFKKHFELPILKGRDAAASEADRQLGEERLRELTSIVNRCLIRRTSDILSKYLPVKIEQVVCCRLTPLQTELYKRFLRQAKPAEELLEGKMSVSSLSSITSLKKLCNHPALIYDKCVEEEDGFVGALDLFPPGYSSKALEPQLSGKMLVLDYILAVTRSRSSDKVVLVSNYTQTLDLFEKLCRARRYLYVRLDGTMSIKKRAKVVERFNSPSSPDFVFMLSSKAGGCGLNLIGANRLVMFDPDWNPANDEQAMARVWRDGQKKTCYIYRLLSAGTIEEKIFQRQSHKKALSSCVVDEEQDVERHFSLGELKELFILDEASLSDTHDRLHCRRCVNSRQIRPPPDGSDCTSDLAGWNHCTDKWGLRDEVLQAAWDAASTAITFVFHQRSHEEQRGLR

[20] = target: T7, Sentrin-specific protease 1 (Homo sapiens, UniProt Q9P0U3); assay: potency of human SENP1 inhibitors, dose response, biochemical, kinetic FRET (AID 651697); format: functional; details: read-out: IC50_Mean
[21] = target: T7, Sentrin-specific protease 1; assay: Dose response confirmation of small molecule inhibitors of the catalytic domain of the SUMO protease, SENP1 in a FRET assay.; format: functional; details: read-out: IC50_Mean
Troponin, cardiac muscle = Troponin, cardiac muscle (Homo sapiens, UniProt P19429+P45379+P63316); assay: Fluorescence-based biochemical high throughput dose response assay for activators of the calcium sensitivity of cardiac Regulated Thin Filaments (RTF). [Related pubchem assays (depositor defined):AID493008, AID493018, AID504382, AID504383]; format: protein-complex assay

CNC(=O)c1nnsc1S(=O)(=O)c1ccc(Cl)cc1
inactive: EC50 (Beta-galactosidase) > 40 µM | IC50 (Beta Lactamase) 11.3 µM | IC50 [8] 10.6 µM
active: AC50 [1] 7.5 µM | AC50 [2] 15.3 µM | AC50 [3] 3.74 µM | AC50 [4] 7.37 µM | IC50 [5] 2.13 µM | AC50 [6] 8.58 µM | EC50 (Protein RecA) 14.3 µM | EC50 [7] 2.47 µM | IC50 [9] 9.67 µM | EC50 [10] 1.24 µM | AC50 [11] 18.8 µM | AC50 [12] 2.7 µM | AC50 [13] 3.28 µM | AC50 [14] 4.54 µM

Cn1cnc2c(O)ncc([N+](=O)[O-])c21
inactive: IC50 [16] > 100 µM
active: IC50 [15] 10.4 µM

CN(C)CCCNc1cc(-c2ccccc2)nc2cc(-c3cccc(F)c3)nn12
active: AC50 [17] 24.4 µM | AC50 [18] 15.1 µM | AC50 [19] 21.1 µM

CC(=O)Oc1ccc(N2C(=O)C3C(C2=O)C(C(=O)c2ccc(Cl)cc2)N2CCCC32)cc1 (stereo not given)
inactive: EC50 (Troponin, cardiac muscle) 23.5 µM
active: IC50 [20] 7.5 µM | IC50 [21] 4.65 µM
